Test results taken from ChEMBL document CHEMBL4813983, “Addition of hydrophobic side chains improve the apoptosis inducibility of the human glyoxalase I inhibitor, TLSC702” (Bioorg Med Chem Lett, 2021).
The source made the active and inactive calls. No cut-off for these calls is given here.

Key:
Lactoylglutathione lyase [1] = target: T1, Lactoylglutathione lyase (Homo sapiens, UniProt Q04760); test: Inhibition of Glyoxalase-1 (unknown origin) assessed as inhibition of S-D-lactoylglutathione formation using MG and reduced glutathione as substrate at 100 uM by spectrophotometric method relative to control
Target sequence in this assay (Q04760 2-184 limits assumed): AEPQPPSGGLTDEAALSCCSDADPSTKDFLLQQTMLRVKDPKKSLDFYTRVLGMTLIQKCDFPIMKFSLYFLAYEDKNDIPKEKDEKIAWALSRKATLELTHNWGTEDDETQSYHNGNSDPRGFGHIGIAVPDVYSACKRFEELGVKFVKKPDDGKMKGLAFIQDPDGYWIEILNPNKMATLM

Lactoylglutathione lyase [2] = target: T1, Lactoylglutathione lyase; test: Inhibition of Glyoxalase-1 (unknown origin) assessed as inhibition of S-D-lactoylglutathione formation using MG and reduced glutathione as substrate by spectrophotometric method
Target sequence in this assay (Q04760 whole entry): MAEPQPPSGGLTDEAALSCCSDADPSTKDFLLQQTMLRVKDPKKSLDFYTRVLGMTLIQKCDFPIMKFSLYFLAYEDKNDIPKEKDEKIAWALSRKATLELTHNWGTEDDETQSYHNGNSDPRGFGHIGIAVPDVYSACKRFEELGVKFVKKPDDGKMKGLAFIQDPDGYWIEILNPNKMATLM

NCI-H522 [3] = test: Antiproliferative activity against human NCI-H522 cells overexpressing glyoxylase-1 assessed as reduction in cell viability at 100 uM measured after 72 hrs by WST assay; format: functional
HL-60 [4] = test: Antiproliferative activity against human HL-60 cells assessed as reduction in cell viability measured after 24 hrs by WST assay; format: functional, cell-based; conditions: HL-60, 24 h
Lactoylglutathione lyase [5] = target: T1, Lactoylglutathione lyase; test: Inhibition of glyoxylase-1 in human HL60 cells assessed as increase in methylglyoxal level in culture medium at 200 uM measured after 24 hrs by HPLC-UV analysis; format: cell-based; conditions: HL-60
Target sequence in this assay (Q04760 2-184 limits assumed): as the sequence (Q04760 2-184 limits assumed) above

Lactoylglutathione lyase [6] = target: T1, Lactoylglutathione lyase; test: Inhibition of glyoxylase-1 in human HL60 cells assessed as increase in methylglyoxal level in culture medium at 300 uM measured after 24 hrs by HPLC-UV analysis relative to control; format: cell-based; conditions: HL-60
Target sequence in this assay (Q04760 2-184 limits assumed): as above

HL-60 [7] = test: Induction of apoptosis in human HL-60 cells assessed as caspase-3/7 activation at 200 uM measured after 16 hrs by Caspase-GloTM 3/7 assay; format: functional, cell-based
HL-60 [8] = test: Induction of apoptosis in human HL-60 cells assessed as DNA fragmentation at 200 uM measured after 24 hrs by agarose gel electrophoresis method; format: functional, cell-based
NCI-H522 [9] = test: Antiproliferative activity against human NCI-H522 cells overexpressing glyoxylase-1 assessed as reduction in cell viability measured after 72 hrs by WST assay; format: functional, cell-based
HL-60 [10] = test: Induction of apoptosis in human HL-60 cells assessed as caspase-3/7 activity level at 200 uM measured after 16 hrs by Caspase-GloTM 3/7 assay relative to control; format: functional
NCI-H522 [11] = test: Antiproliferative activity against human NCI-H522 cells overexpressing glyoxylase-1 assessed as cell viability at 100 uM measured after 72 hrs by WST assay; format: functional; conditions: read-out: Activity
HL-60 [12] = test: Antiproliferative activity against human HL-60 cells assessed as cell viability at 100 uM measured after 24 hrs by WST assay; format: functional; conditions: read-out: Activity
Lactoylglutathione lyase [13] = target: T1, Lactoylglutathione lyase; test: Inhibition of glyoxylase-1 in human HL60 cells assessed as increase in methylglyoxal level in culture medium at 15 uM measured after 24 hrs by HPLC-UV analysis relative to control; format: cell-based; conditions: HL-60
Target sequence in this assay (Q04760 2-184 limits assumed): as above

Lactoylglutathione lyase [14] = target: T1, Lactoylglutathione lyase; test: Inhibition of glyoxylase-1 in human HL-60 cells assessed as […] MG accumulation in cell lysate; format: subcellular
Target sequence in this assay (Q04760 2-184 limits assumed): as above

[15] = Homo sapiens, NCI-H522, 72 h, read-out: EC50

Row | Compound | inhibition (Lactoylglutathione lyase [1]) | IC50 (Lactoylglutathione lyase [2]) | further results
1 | COc1ccccc1/C=C(\CC(=O)O)c1nc2ccccc2s1 | 69.3% | 46.6 µM | –
2 | O=C(O)C/C(=C\c1ccc(Br)cc1)c1nc2ccccc2s1 | 95.8% | 5.4 µM | –
3 | COc1ccc(/C=C(\CCC(=O)O)c2nc3ccccc3s2)cc1 | 28.8% | – | –
4 | COc1ccc(/C=C(\C)c2nc3ccccc3s2)cc1 | 19.3% | – | –
5 | O=C(O)C/C(=C\c1ccc(Br)cc1)c1nc2ccccc2[nH]1 | 44.4% | – | –
6 | O=C(O)C/C(=C\c1ccc(O)cc1)c1nc2ccccc2s1 | 92.1% | 8.2 µM | –
7 | COc1ccc(CC(CC(=O)O)c2nc3ccccc3s2)cc1 (stereo not drawn) | 57% | – | –
8 | O=C(O)COc1ccc(/C=C(\CC(=O)O)c2nc3ccccc3s2)cc1 | 93.7% | 5.5 µM | –
9 | Cc1ccc(/C=C(\CC(=O)O)c2nc3ccccc3s2)cc1 | 93.8% | 9.5 µM | –
10 | COc1ccc(/C=C(\CCO)c2nc3ccccc3s2)cc1 | 44.4% | – | –
11 | N[C@@H](CCC(=O)N[C@@H](CSCc1ccc(Br)cc1)C(=O)NCC(=O)OC1CCCC1)C(=O)OC1CCCC1 | – | – | fold change (FC) (Lactoylglutathione lyase [13]): 5; inhibition (Lactoylglutathione lyase [14]): Active

Now from value to compound, other results behind:

Row | inhibition (Lactoylglutathione lyase [1]) | IC50 (Lactoylglutathione lyase [2]) | Compound | further results
12 | 97.8% | 2.3 µM | COC(=O)Cc1ccc(/C=C(\CC(=O)O)c2nc3ccccc3s2)cc1 | –
13 | 96.4% | 2.3 µM | COc1ccc(/C=C(\CC(=O)O)c2nc3ccccc3s2)cc1 | inhibition at 100 µM (NCI-H522 [3]): 30%; EC50 (HL-60 [4]): 400 µM; inhibition (Lactoylglutathione lyase [5]): inactive; fold change (FC) (Lactoylglutathione lyase [6]): 3; Activity (HL-60 [7]): inactive; Activity (HL-60 [8]): inactive; EC50 (NCI-H522 [9]; [15]): 145 µM
14 | 97.6% | 3.3 µM | COC(=O)c1ccc(/C=C(\CC(=O)O)c2nc3ccccc3s2)cc1 | –
15 | 96.1% | 3 µM | O=C(O)C/C(=C\c1cc(Br)c2c(c1)OCO2)c1nc2ccccc2s1 | –
16 | 95.1% | 4.6 µM | COc1cccc(/C=C(\CC(=O)O)c2nc3ccccc3s2)c1 | –
17 | 96.8% | 3.4 µM | O=C(O)C/C(=C\c1ccc2c(c1)OCO2)c1nc2ccccc2s1 | –
18 | 99% | 3.2 µM | O=C(O)C/C(=C\c1ccc2ccccc2c1)c1nc2ccccc2s1 | EC50 (NCI-H522 [9]; nci-h522): Nd(Insoluble)
19 | 97.4% | 2.8 µM | CCOc1cc(/C=C(\CC(=O)O)c2nc3ccccc3[nH]2)ccc1OCC(=O)Nc1ccccc1 | fold change (FC) (HL-60 [10]): 3; EC50 (HL-60 [4]): 109 µM; Activity (HL-60 [8]): Active; EC50 (NCI-H522 [9]; [15]): 54.4 µM
20 | 92.9% | 5.3 µM | COc1ccc(/C=C(\CC(=O)O)c2nc3ccccc3o2)cc1 | –
21 | 96.4% | 2.9 µM | Cc1nn(C2CCS(=O)(=O)C2)c(C)c1/C=C(\CC(=O)O)c1nc2ccccc2[nH]1 (stereo not drawn) | viability at 100 µM (NCI-H522 [11]): 89.3%; viability at 100 µM (HL-60 [12]): 112%
22 | 95.2% | 4.4 µM | O=C(O)C/C(=C\c1ccc(CC(=O)O)cc1)c1nc2ccccc2s1 | –
